Reference: publication PMC8765320, “Identification of a Proteasome-Targeting Arylsulfonamide with Potential for the Treatment of Chagas’ Disease” (Antimicrobial Agents and Chemotherapy, 2022)
Where two headings read alike, the source gives them in different places.

Experiments:
[1] = test system: L. donovani intramacrophage; parameters: method as in Peña et al. (12); details: ref Peña et al. (12), read-out: Mean compound 1 EC50; cited from earlier work
CYP51 = test system: CYP51; parameters: method as in PMID 25740547; details: cited from earlier work
[2] = test system: L. donovani, T. cruzi, and T. brucei; experiment: Phenotypic screening against three kinetoplastids; assay type: cell-based; details: range over all three kinetoplastids; read-out: EC50 values against the mammalian stages of these parasites
[3] = test system: T. cruzi amastigotes within Vero cells; experiment: Drug sensitivity assay against T. cruzi-infected Vero cells (intracellular amastigotes); assay type: cell-based, Trypanosoma cruzi; details: for EC50: Trypanosoma cruzi, Vero
Protocol: The clonal Leishmania donovani cell line LdBOB (derived from MHOM/SD/62/1S-CL2D) was grown as either promastigotes or axenic amastigotes in media specific for each developmental stage, as previously described ([32]). T. cruzi epimastigotes from the Silvio strain (MHOM/BR/78/Silvio; clone X10/7A [33]) were grown at 28°C in RTH/FBS (RPMI 1640 medium supplemented with Trypticase, hemin, HEPES, and 10% heat-inactivated fetal calf serum (FCS) [Fisher Scientific]) ([34]). Bloodstream form T. brucei “single marker” S427 (T7RPOL TETR NEO) were cultured in the presence of G418 (15 μg ml^−1) at 37°C in HMI9-T media in the presence of 5% CO2. HepG2 cells (ECACC 85011430) were obtained from European Collection of Authenticated Cell Culture (ECACC). Cells were maintained in full growth medium (minimal essential medium [MEM] with GlutaMAX (Thermo Fisher), supplemented with 1% MEM nonessential amino acids (Sigma) and 10% heat-inactivated FBS and cultured at 37°C in the presence of 5% CO2. Cells were passaged twice weekly by detaching adherent cells with 0.05% trypsin/EDTA (Sigma) and diluted into fresh media. Cells were never grown beyond 80% confluence. Vero cells (African green monkey kidney cells; ECCAC 84113001) were maintained at 37°C, 5% CO2 in Dulbecco modified Eagle medium (DMEM; Lonza) supplemented with 10% FCS and subcultured every 2 days. T. cruzi metacyclic trypomastigotes were obtained from late-log-phase epimastigote cultures (initial inoculum, 10^6 ml^−1) after ca. 7 to 10 days at 28°C in RTH/FBS. Trypomastigote-rich cultures were incubated with Vero cells overnight at 37°C and 5% CO2 in DMEM/10% FCS. The following day, extracellular parasites were removed by washing the Vero cell monolayer three times. Infected monolayers were maintained at 37°C and in 5% CO2, DMEM/10% FCS was replaced every 48 h until the trypomastigotes reemerged from the Vero cells ([9]).
Drug sensitivity assays against T. cruzi-infected Vero cells were carried out as previously described ([37]); however, in this instance, assays were carried out in 96-well plates. Data were processed using GRAFIT (Erithacus software) and fitted to a two-parameter equation, as described above.

[4] = test system: mitochondrial T. cruzi malic enzyme (mTcME); experiment: Thermal proteome profiling, mTcME; assay type: binding, Trypanosoma cruzi; details: lysate, compound at 10× EC50
Protocol: (§1) Aliquots of each lysate were then incubated at designated temperatures (33 to 69°C) and then, for each temperature, insoluble (denatured) proteins were removed. The resulting soluble protein samples were reduced, alkylated, and digested with trypsin prior to derivatization with tandem mass tags. Pooled peptides were fractionated by high-pressure liquid chromatography and analyzed by LC/MS-MS prior to identification and quantitation. The melting points of identified proteins were then established using the TPP software package. Full melt curves were established for 6,771 proteins, representing 39.4% coverage of the T. cruzi proteome.
T. cruzi (X10/7 strain) mid-log-phase epimastigotes (∼1 × 10^10) were harvested by centrifugation (1,912 × g, 15 min, 4°C) and washed with ice-cold PBS (1,912 × g, 5 min, 4°C); finally, the cell pellet was resuspended in 8 ml of ice-cold lysis buffer (1 mM EDTA, 1 mM dithiothreitol [DTT], 100 μM TLCK [Nα-p-tosyl-L-lysine chloromethyl ketone], and 1× Roche EDTA-free COmplete protease inhibitor cocktail in 50 mM potassium phosphate buffer [pH 7.4]). […] The resulting lysate was centrifuged (100,000 × g, 20 min, 4°C), the supernatant was collected, and the protein concentration was determined using a Bio-Rad protein assay. […]

[5] = test system: cytosolic T. cruzi malic enzyme (cTcME; C4B63_28g106); experiment: Thermal proteome profiling, cTcME; assay type: binding, Trypanosoma cruzi; details: for ΔTm 1 / ΔTm 2: malic enzyme C4B63_28g106
Protocol: as §1
T. cruzi (X10/7 strain) mid-log-phase epimastigotes (∼1 × 10^10) were harvested by centrifugation (1,912 × g, 15 min, 4°C) and washed with ice-cold PBS (1,912 × g, 5 min, 4°C); finally, the cell pellet was resuspended in 8 ml of ice-cold lysis buffer (1 mM EDTA, 1 mM dithiothreitol [DTT], 100 μM TLCK [Nα-p-tosyl-L-lysine chloromethyl ketone], and 1× Roche EDTA-free COmplete protease inhibitor cocktail in 50 mM potassium phosphate buffer [pH 7.4]). The cell suspension was submitted to three freeze-thaw cycles in a dry ice/ethanol bath to biologically inactivate the parasites and then submitted to cell disruption (Constant Systems, UK) at 30 kpsi. The resulting lysate was centrifuged (100,000 × g, 20 min, 4°C), the supernatant was collected, and the protein concentration was determined using a Bio-Rad protein assay.
Each 2-ml aliquot (drug and vehicle treated) was divided into 10 × 100-μl aliquots in 0.5-ml thin-walled PCR tubes, followed by incubation at a designated temperature (33, 37, 41, 45, 49, 53, 57, 61, 65, or 69°C) for 3 min, followed in turn by incubation at room temperature for 3 min before each sample was placed on ice. Each aliquot was centrifuged (100,000 × g, 20 min, 4°C), the supernatants were harvested, and the protein concentration was assessed.
All aspects of sample processing, peptide and protein identification and quantitation, and target identification were carried out as previously described ([15]). However, in this instance, proteins were identified by searching the MS and MS/MS data for the peptides against T. cruzi proteome Dm28c 2018 version 50 (https://tritrypdb.org/tritrypdb).

In the case of COc1ccc(NS(=O)(=O)c2cc(-c3cc(C)n[nH]3)ccc2C)cc1OC [Compound 1], the EC50 [1] is given as 8 µM, the “CYP51 pIC50” value (CYP51) is given as 4.4 and the EC50 [2] is given as 0.1 to 8 µM. The EC50 ([3]; T. cruzi Intra-Vero, weighted mean, n ≥ 3, read-out: Mean compound 1 EC50 ± SD) was 1300 ± 200 nM, the EC50 ([3]; in Vero cells, cell line ME OE, (*) one biological replicate, read-out: EC50 values) was 800 ± 70 nM and the EC50 ([3]; in Vero cells, cell line RES 1, read-out: EC50 values) was 10000 ± 5000 nM. It also gave an EC50 ([3]; in Vero cells, cell line RES 5, read-out: EC50 values) of over 50000 nM, an EC50 ([3]; in Vero cells, cell line Wild-type, read-out: EC50 values) of 1000 ± 200 nM and an EC50 ([3]; in Vero cells, cell line β5 OE rescue R1, (*) one biological replicate, read-out: EC50 values) of 3000 ± 200 nM. For the same compound, the EC50 ([3]; in Vero cells, cell line β5 OE, read-out: EC50 values) was 1000 ± 200 nM, the EC50 ([3]; read-out: EC50 values, in Vero cells, cell line β4 F24L/I29M) was over 23000 nM and the EC50 ([3]; read-out: EC50 values, in Vero cells, cell line β5 D225N-OE, (*) one biological replicate) was 12000 ± 1400 nM. For the same compound, the “fold change versus WT” value ([3]; in Vero cells, cell line ME OE) was 1 fold, the “fold change versus WT” value ([3]; in Vero cells, cell line RES 1) was 8 fold and the “fold change versus WT” value ([3]; in Vero cells, cell line RES 5) was over 42 fold. For the same compound, the “fold change versus WT” value ([3]; in Vero cells, cell line Wild-type) was 1 fold, the “fold change versus WT” value ([3]; in Vero cells, cell line β4 F24L/I29M) was over 19 fold and the “fold change versus WT” value ([3]; in Vero cells, cell line β5 D225N-OE) was 10 fold. For the same compound, the “fold change versus WT” value ([3]; in Vero cells, cell line β5 OE) was 1 fold, the “fold change versus WT” value ([3]; in Vero cells, cell line β5 OE rescue R1) was 2 fold and the “impact on the thermal stability of mTcME” value [4] was “no impact”. For the same compound, the “increase in thermal stability of cTcME (mean ΔTm)” value ([5]; experiment 1, lysate, compound at 10× EC50 (20 μM)) was 8.8 °C, the ΔTm 1 ([5]; biological replicate 1) was 8.6 °C and the ΔTm 2 ([5]; biological replicate 1) was 9.08 °C. For the same compound, the ΔTm 1 ([5]; biological replicate 2) was 5.6 °C and the ΔTm 2 ([5]; biological replicate 2) was 3.73 °C.
